Reference: PubChem BioAssay (NCI)
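A five-concentration, 48-hour dose response in 96-well plates underlies each endpoint, interpolated linearly between surrounding concentrations. Definition used: TGI = concentration required for complete inhibition of growth.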

Columns and labels:
Assay in all cases: growth of human tumour cells (NCI), 48 h
HCT-15 colon = test system: HCT-15 colon
SK-MEL-2 melanoma = test system: SK-MEL-2 melanoma
MDA-MB-231 breast = test system: MDA-MB-231 breast
MDA-N = test system: MDA-N
SF-268 CNS = test system: SF-268 CNS
BT-549 breast = test system: BT-549 breast
UACC-257 melanoma = test system: UACC-257 melanoma
A549 NSCLC = test system: A549 NSCLC
SK-MEL-5 melanoma = test system: SK-MEL-5 melanoma
NCI-H23 lung = test system: NCI-H23 lung
786-0 renal = test system: 786-0 renal
RXF 393 renal = test system: RXF 393 renal

Row | SMILES | TGI (HCT-15 colon) | TGI (SK-MEL-2 melanoma) | TGI (MDA-MB-231 breast) | TGI (MDA-N) | TGI (SF-268 CNS) | TGI (BT-549 breast) | TGI (UACC-257 melanoma) | TGI (A549 NSCLC) | TGI (SK-MEL-5 melanoma) | TGI (NCI-H23 lung) | TGI (786-0 renal) | TGI (RXF 393 renal)
1 | CSc1n[nH]c(N)c1C(=O)Nc1ccc(Cl)cc1 | > 100 µM | > 100 µM | > 100 µM | > 100 µM | > 100 µM | > 100 µM | > 100 µM | > 100 µM | > 100 µM | > 100 µM | > 100 µM | 60.7 µM
2 | C[N+]1(C)C2Cc3ccccc3C1Cc1ccccc12 | > 100 µM | > 100 µM | > 100 µM | > 100 µM | > 100 µM | > 100 µM | > 100 µM | > 100 µM | > 100 µM | > 100 µM | > 100 µM | > 100 µM
3 | Cc1c(C)c(C)c(-n2c(=O)n(C)c(=O)n2C(C)(C)C)c(C)c1C | > 100 µM | > 100 µM | > 100 µM | > 100 µM | > 100 µM | > 100 µM | > 100 µM | > 100 µM | > 100 µM | > 100 µM | > 100 µM | > 100 µM
4 | COc1ccc(C2SCC(=O)N2N=C2NC(=O)CC(=O)N2)cc1 (stereo not drawn) | > 100 µM | > 100 µM | > 100 µM | > 100 µM | > 100 µM | > 100 µM | > 100 µM | > 100 µM | > 100 µM | > 100 µM | > 100 µM | > 100 µM
5 | CCOC(=O)C(NCc1ccccc1)(NC(=O)c1ccccc1)C(F)(F)F (stereo not drawn) | > 100 µM | > 100 µM | 83.6 µM | > 100 µM | > 100 µM | > 100 µM | > 100 µM | > 100 µM | > 100 µM | > 100 µM | > 100 µM | > 100 µM
6 | c1cc(-c2cscc2-c2ccsc2)cs1 | > 100 µM | 28.4 µM | > 100 µM | > 100 µM | > 100 µM | > 100 µM | > 100 µM | > 100 µM | > 100 µM | > 100 µM | > 100 µM | > 100 µM
7 | CCOC(=O)c1nc2c3c(ncn2n1)Oc1c(c(-c2ccccc2)nn1-c1ccccc1)C3c1ccc(OC)c(OC)c1 (stereo not drawn) | > 100 µM | > 100 µM | > 100 µM | > 100 µM | 71.1 µM | > 100 µM | > 100 µM | > 100 µM | > 100 µM | > 100 µM | > 100 µM | 91.4 µM
8 | COc1c(C2(c3ccc(F)cc3)SCCCS2)c(=O)c1=O | > 100 µM | > 100 µM | > 100 µM | > 100 µM | > 100 µM | > 100 µM | > 100 µM | > 100 µM | > 100 µM | > 100 µM | > 100 µM | > 100 µM
9 | NC1=CN(CCCO)C2=N/C(=C\c3ccco3)C(=O)N12 | > 100 µM | > 100 µM | > 100 µM | > 100 µM | > 100 µM | > 100 µM | > 100 µM | > 100 µM | > 100 µM | > 100 µM | > 100 µM | > 100 µM
